Experimental data: ChEMBL document CHEMBL1671626, “In vitro profiling of ceftaroline against a collection of recent bacterial clinical isolates from across the United States” (2008)

What was measured:
Assay type in all cases: functional
[1] = test system: Staphylococcus aureus; assay: Antibacterial activity against methicillin-susceptible Staphylococcus aureus by CLSI M7-A7 broth microdilution method
[2] = test system: Staphylococcus aureus; assay: Antibacterial activity against methicillin-resistant Staphylococcus aureus by CLSI M7-A7 broth microdilution method
[3] = test system: Staphylococcus aureus; assay: Antibacterial activity against coagulase-negative and oxacillin-susceptible Staphylococcus aureus by CLSI M7-A7 broth microdilution method
[4] = test system: Staphylococcus aureus; assay: Antibacterial activity against coagulase-negative and oxacillin-resistant Staphylococcus aureus by CLSI M7-A7 broth microdilution method
[5] = test system: Streptococcus pneumoniae; assay: Antibacterial activity against penicillin-susceptible Streptococcus pneumoniae by CLSI M7-A7 broth microdilution method
[6] = test system: Streptococcus pneumoniae; assay: Antibacterial activity against penicillin-resistant Streptococcus pneumoniae by CLSI M7-A7 broth microdilution method
[7] = test system: Streptococcus pyogenes; assay: Antibacterial activity against erythromycin-susceptible Streptococcus pyogenes by CLSI M7-A7 broth microdilution method
[8] = test system: Streptococcus pyogenes; assay: Antibacterial activity against erythromycin-nonsusceptible Streptococcus pyogenes by CLSI M7-A7 broth microdilution method
[9] = test system: Streptococcus agalactiae; assay: Antibacterial activity against erythromycin-susceptible Streptococcus agalactiae by CLSI M7-A7 broth microdilution method
[10] = test system: Streptococcus agalactiae; assay: Antibacterial activity against erythromycin-nonsusceptible Streptococcus agalactiae by CLSI M7-A7 broth microdilution method
[11] = test system: Streptococcus viridans; assay: Antibacterial activity against penicillin-susceptible Streptococcus viridans by CLSI M7-A7 broth microdilution method
[12] = test system: Streptococcus viridans; assay: Antibacterial activity against penicillin-nonsusceptible Streptococcus viridans by CLSI M7-A7 broth microdilution method
[13] = test system: Enterococcus faecalis; assay: Antibacterial activity against vancomycin-susceptible Enterococcus faecalis by CLSI M7-A7 broth microdilution method
[14] = test system: Enterococcus faecalis; assay: Antibacterial activity against vancomycin-resistant Enterococcus faecalis by CLSI M7-A7 broth microdilution method
[15] = test system: Enterococcus faecium; assay: Antibacterial activity against vancomycin-resistant Enterococcus faecium by CLSI M7-A7 broth microdilution method
[16] = test system: Enterobacteriaceae; assay: Antibacterial activity against ceftazidime-susceptible Enterobacteriaceae by CLSI M7-A7 broth microdilution method
[17] = test system: Enterobacteriaceae; assay: Antibacterial activity against ceftazidime-nonsusceptible Enterobacteriaceae by CLSI M7-A7 broth microdilution method
[18] = test system: Citrobacter freundii; assay: Antibacterial activity against ceftazidime-susceptible Citrobacter freundii by CLSI M7-A7 broth microdilution method
[19] = test system: Citrobacter freundii; assay: Antibacterial activity against ceftazidime-nonsusceptible Citrobacter freundii by CLSI M7-A7 broth microdilution method
[20] = test system: Enterobacter cloacae; assay: Antibacterial activity against ceftazidime-susceptible Enterobacter cloacae by CLSI M7-A7 broth microdilution method
[21] = test system: Enterobacter cloacae; assay: Antibacterial activity against ceftazidime-nonsusceptible Enterobacter cloacae by CLSI M7-A7 broth microdilution method
[22] = test system: Escherichia coli; assay: Antibacterial activity against ceftazidime-susceptible Escherichia coli by CLSI M7-A7 broth microdilution method
[23] = test system: Escherichia coli; assay: Antibacterial activity against ceftazidime-nonsusceptible Escherichia coli by CLSI M7-A7 broth microdilution method
[24] = test system: Klebsiella pneumoniae; assay: Antibacterial activity against ceftazidime-susceptible Klebsiella pneumoniae by CLSI M7-A7 broth microdilution method
[25] = test system: Klebsiella pneumoniae; assay: Antibacterial activity against ceftazidime-nonsusceptible Klebsiella pneumoniae by CLSI M7-A7 broth microdilution method
[26] = test system: Morganella morganii; assay: Antibacterial activity against ceftazidime-susceptible Morganella morganii by CLSI M7-A7 broth microdilution method
[27] = test system: Proteus mirabilis; assay: Antibacterial activity against ceftazidime-susceptible Proteus mirabilis by CLSI M7-A7 broth microdilution method
[28] = test system: Serratia marcescens; assay: Antibacterial activity against ceftazidime-susceptible Serratia marcescens by CLSI M7-A7 broth microdilution method
[29] = test system: Acinetobacter; assay: Antibacterial activity against multidrug-resistant Acinetobacter by CLSI M7-A7 broth microdilution method
[30] = test system: Acinetobacter; assay: Antibacterial activity against imipenem-susceptible Acinetobacter by CLSI M7-A7 broth microdilution method
[31] = test system: Haemophilus influenzae; assay: Antibacterial activity against beta lactamase-negative Haemophilus influenzae by CLSI M7-A7 broth microdilution method
[32] = test system: Haemophilus influenzae; assay: Antibacterial activity against beta lactamase-positive Haemophilus influenzae by CLSI M7-A7 broth microdilution method
[33] = test system: Moraxella catarrhalis; assay: Antibacterial activity against beta lactamase-positive Moraxella catarrhalis by CLSI M7-A7 broth microdilution method
[34] = test system: Pasteurella multocida; assay: Antibacterial activity against Pasteurella multocida by CLSI M7-A7 broth microdilution method
[35] = test system: Providencia sp.; assay: Antibacterial activity against ceftazidime-susceptible Providencia sp. by CLSI M7-A7 broth microdilution method

CCO/N=C(\C(=O)N[C@@H]1C(=O)N2C(C(=O)[O-])=C(Sc3nc(-c4cc[n+](C)cc4)cs3)CS[C@H]12)c1nsc(NP(=O)(O)O)n1 [CEFTAROLINE FOSAMIL]
> 16 µg/mL: MIC50 [15] | MIC90 [15] | MIC50 [17] | MIC90 [17] | MIC50 [19] | MIC90 [19] | MIC50 [21] | MIC90 [21] | MIC50 [23] | MIC90 [23] | MIC50 [25] | MIC90 [25] | MIC50 [29] | MIC90 [30] | MIC90 [35]
4 µg/mL: MIC90 [13] | MIC50 [14] | MIC90 [14] | MIC90 [27] | MIC50 [30]
1 µg/mL: MIC90 [2] | MIC90 [16] | MIC90 [20] | MIC50 [35]
0.03 µg/mL: MIC90 [11] | MIC90 [32]
0.015 µg/mL: MIC90 [5] | MIC90 [8] | MIC50 [9] | MIC90 [9] | MIC50 [10] | MIC90 [10] | MIC90 [31] | MIC50 [32]
2 µg/mL: MIC50 [13]
0.5 µg/mL: MIC50 [2] | MIC50 [4] | MIC90 [4] | MIC90 [12] | MIC90 [22] | MIC50 [28]
16 µg/mL: MIC90 [26] | MIC90 [28]
0.25 µg/mL: MIC50 [1] | MIC90 [1] | MIC90 [18] | MIC90 [24] | MIC90 [33]
0.12 µg/mL: MIC90 [3] | MIC50 [6] | MIC90 [6] | MIC50 [12] | MIC50 [18] | MIC50 [20]
≤ 8 ng/mL: MIC [5] | MIC50 [5] | MIC [7] | MIC50 [7] | MIC90 [7] | MIC [8] | MIC50 [8] | MIC [11] | MIC50 [11] | MIC [31] | MIC50 [31] | MIC [34] | MIC50 [34]
0.06 µg/mL: MIC50 [3] | MIC50 [16] | MIC50 [22] | MIC50 [24] | MIC50 [26] | MIC50 [27] | MIC50 [33] | MIC90 [34]
